Data from patent US6335327B1, “Benzoheterocyclic derivatives” (Otsuka Pharmaceuticals Co., Ltd., priority 1994, dated 2002).

Row | Compound | melting point
1 | COc1cc(NCc2ccccc2C)ccc1C(=O)N1CCCC(CC(=O)N2CCN(C)CC2)c2cc(Cl)ccc21 (stereo not drawn) [Example 142, 7-chloro-5-[(4-methyl-1-piperazinyl)carbonylmethyl]-1-[2-methoxy-4-(2-methylbenzylamino)benzoyl]-2,3,4,5-tetrahydro-1H-benzazepine] | 153 to 154.5 °C
2 | O=C(c1ccc(-c2ccccc2)cc1Cl)N1CCCC(Cc2nnn[nH]2)c2ccccc21 (stereo not drawn) [Example 730, 5-(5-tetrazolyl)methyl-1-(4-phenyl-2-chlorobenzoyl)-2,3,4,5-tetrahydro-1H-benzazepine] | 191 to 194 °C
3 | CN1CCN(c2ccc(C(=O)N3CCCCc4ccccc43)c(Cl)c2)CC1 [Example 728, 1-[4-(4-methyl-1-piperazinyl)-2-chlorobenzoyl]-2,3,4,5-tetrahydro-1H-benzazepine] | 138 to 140 °C
4 | O=C(O)CC1CCCN(C(=O)c2ccc(NC(=O)COc3ccccc3)cc2)c2ccccc21 (stereo not drawn) [Example 721, 5-carboxymethyl-1-[4-(2-phenoxyacetylamino)benzoyl]-2,3,4,5-tetrahydro-1H-benzazepine] | 102 to 106 °C
5 | O=C(Nc1ccc(C(=O)N2CCCCc3ccccc32)c(Cl)c1)OCCOc1ccccc1 [Example 726, 1-[4-(2-phenoxyethoxycarbonylamino)-2-chlorobenzoyl]-2,3,4,5-tetrahydro-1H-benzazepine] | 144 to 146 °C
6 | COc1cc(NCCOc2ccccc2C)ccc1C(=O)N1CCCC(CC(=O)N2CCN(C)CC2)c2cc(Cl)ccc21 (stereo not drawn) [Example 139, 7-chloro-5-[(4-methyl-1-piperazinyl)carbonylmethyl]-1-[2-methoxy-4-[2-(2-methylphenoxy)ethylamino]benzoyl}-2,3,4,5-tetrahydro-1H-benzazepine] | 160 to 161 °C
7 | O=C(Nc1ccc(C(=O)N2CCCCc3ccccc32)c(Cl)c1)OCc1ccncc1 [Example 725, 1-{4-[(4-pyridyl)methoxycarbonylamino]-2-chlorobenzoyl}-2,3,4,5-tetrahydro-1H-benzazepine] | 181 to 184 °C
8 | Cc1cc(NC(=O)CO)ccc1C(=O)N1CCCCc2cc(Cl)ccc21 [Example 722, 7-chloro-1-[2-methyl-4-(2-hydroxyacetylamino)benzoyl]-2,3,4,5-tetrahydro-1H-benzazepine] | 194 to 195 °C
9 | COc1cc(C(=O)N2CCCCc3cc(Cl)ccc32)ccc1NC(=O)N(C)C [Example 146, 7-chloro-1-(3-methoxy-4-dimethylaminocarbonylaminobenzoyl)-2,3,4,5-tetrahydro-1H-benzazepine] | 230 to 232 °C
